From BindingDB's records for doi:10.1016/j.bmcl.2005.07.040 (Universit&#233, 2005) come the findings set out here.

pIC50: −log10 of the molar value.

This assay has as its target Sigma non-opioid intracellular receptor 1 (Cavia porcellus). Kind of assay: Inhibitory concentration against opioid receptor sigma 1 of guinea pig cerebral cortex using [3H](+)-pentazocine upon incubation for 150 minutes at 22 degree C.
For the compound `O=C1N(CCN2CCCCC2)C[C@@H]2Cc3ccccc3CN12` [(S)-2-(2-Piperidin-1-yl-ethyl)-1,5,10,10a-tetrahydro-2H-imidazo[1,5-b]isoquinolin-3-one], the pIC50 (as a rule, −log10 of the IC50, conventionally taken in molar units) was 7.27.
With `Oc1c2n(c(=S)n1CCN1CCCCC1)Cc1ccccc1C2` [(S)-2-(2-Piperidin-1-yl-ethyl)-3-thioxo-2,3,10,10a-tetrahydro-5H-imidazo[1,5-b]isoquinolin-1-one], the pIC50 is 9.05.
On to `O=c1n(CCN2CCCCC2)c(O)c2n1CCCC2` [(S)-2-(2-Piperidin-1-yl-ethyl)-tetrahydro-imidazo[1,5-a]pyridine-1,3-dione], for which the pIC50 was < 6.00.
As for `O=c1n(CCN2CCCCC2)c(O)c2n1Cc1ccccc1C2`, the pIC50 is 8.18.
For `c1ccc2c(c1)C[C@H]1CN(CCN3CCCCC3)CN1C2` [(S)-2-(2-Piperidin-1-yl-ethyl)-1,2,3,5,10,10a-hexahydro-imidazo[1,5-b]isoquinoline] the value was 7.11.
